Test results published in publication PMC3691235, “Discovery of a Novel Dual Fungal CYP51/Human 5-Lipoxygenase Inhibitor: Implications for Anti-Fungal Therapy” (PLoS ONE, 2013).

How the values were obtained:
5-LOX = target: T1, 5-LOX (Homo sapiens, UniProt P09917); assay: Pseudoperoxidase activity assay; type: biochemical; conditions: 10 µM inhibitor, 10 µM 13-HPODE, positive = loss of greater than 40% of product absorption at 234 nm
T1 construct: made in house
T1 sequence (P09917 1-674): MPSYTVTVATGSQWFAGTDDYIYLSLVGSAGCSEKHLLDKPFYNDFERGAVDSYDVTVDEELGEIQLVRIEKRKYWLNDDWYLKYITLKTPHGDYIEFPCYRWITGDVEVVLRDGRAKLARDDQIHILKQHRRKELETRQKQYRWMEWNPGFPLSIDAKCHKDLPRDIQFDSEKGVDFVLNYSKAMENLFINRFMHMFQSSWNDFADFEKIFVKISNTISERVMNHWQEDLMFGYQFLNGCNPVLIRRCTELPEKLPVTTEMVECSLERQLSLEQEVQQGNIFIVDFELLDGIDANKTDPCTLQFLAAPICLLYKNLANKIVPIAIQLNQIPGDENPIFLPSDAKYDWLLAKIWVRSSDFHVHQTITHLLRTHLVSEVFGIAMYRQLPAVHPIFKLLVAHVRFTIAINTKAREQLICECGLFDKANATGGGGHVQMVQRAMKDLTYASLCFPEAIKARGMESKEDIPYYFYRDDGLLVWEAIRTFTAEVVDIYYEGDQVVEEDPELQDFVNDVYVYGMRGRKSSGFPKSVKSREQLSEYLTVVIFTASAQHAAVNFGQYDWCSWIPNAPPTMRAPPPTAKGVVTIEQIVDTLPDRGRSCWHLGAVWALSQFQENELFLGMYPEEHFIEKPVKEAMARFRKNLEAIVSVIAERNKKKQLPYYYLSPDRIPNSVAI
Method: The reductive properties of the inhibitors were determined by monitoring the pseudoperoxidase activity of lipoxygenase in the presence of the inhibitor and 13-(S)-hydroperoxyoctadecadienoic acid (13-HPODE). Activity is monitored by direct measurement of the product degradation following the decrease of absorbance at 234 nm using a Perkin-Elmer Lambda 40 UV/Vis spectrometer (50 mM Sodium Phosphate (pH 7.4), 0.3 mM CaCl2, 0.1 mM EDTA, 0.01% Triton X100, 10 µM 13-HPODE). All reactions were performed in 2 mL of buffer and constantly stirred with a rotating stir bar (23°C). Reaction was initiated by addition of 10 µM inhibitor (a 1 to 1 ratio to 13-HPODE), and a positive result for activity reflected a loss of greater than 40% of product absorption at 234 nm.

[1] = target: T2, Human leukocyte 5-lipoxygenase (Homo sapiens, UniProt P09917); assay: Lipoxygenase UV-based inhibitor assay, 5-LOX; type: biochemical; conditions: for IC50: UV-based assay, 10 µM AA, pH 7.3, crude enzyme, error = SD, read-out: 5-LOX IC50
T2 construct: made in house
T2 sequence (P09917 1-674): T1 sequence (P09917 1-674)
Method: (§1) Human leukocyte 5-lipoxygenase was expressed as a non-tagged protein and used as a crude ammonium sulfate protein fraction, as published previously.
(§2) Inhibitor potencies were evaluated through use of the standard UV-based inhibitor assay. The initial rates were determined by following the formation of the conjugated diene product at 234 nm (ε = 25,000 M^−1 cm^−1) with a Perkin-Elmer Lambda 40 UV/Vis spectrophotometer at one substrate concentration and varying inhibitor concentrations. All reactions were 2 mL in volume and constantly stirred using a magnetic stir bar at room temperature (23°C), with the enzyme specific buffer conditions outlined in Table 1. The substrate used for the various isozymes was arachidonic acid (AA) for 5-LOX, 12-LOX, and 15-LOX-2 and linoleic acid (LA) for 15-LOX-1, where concentrations were quantitatively determined by allowing the enzymatic reaction to go to completion. IC50 values were obtained by determining the initial rate at various inhibitor concentrations and plotting them against inhibitor concentration, followed by a hyperbolic saturation curve fit. The data used for the saturation curves were performed in duplicate or triplicate, depending on the quality of the data. […] Inhibitors were stored at −20°C in DMSO. […] The solvent isotope effect of the inhibitor IC50 was investigated utilizing the same conditions and methods as stated above. The pH of the buffered D2O was determined as reported previously.

[2] = target: T3, human platelet 12-lipoxygenase (12-LOX) (Homo sapiens, UniProt P18054); assay: Lipoxygenase UV-based inhibitor assay, 12-LOX; type: biochemical; conditions: 10 µM AA, pH 8.0
T3 construct: His6 (N); made in house
T3 sequence (P18054 1-663): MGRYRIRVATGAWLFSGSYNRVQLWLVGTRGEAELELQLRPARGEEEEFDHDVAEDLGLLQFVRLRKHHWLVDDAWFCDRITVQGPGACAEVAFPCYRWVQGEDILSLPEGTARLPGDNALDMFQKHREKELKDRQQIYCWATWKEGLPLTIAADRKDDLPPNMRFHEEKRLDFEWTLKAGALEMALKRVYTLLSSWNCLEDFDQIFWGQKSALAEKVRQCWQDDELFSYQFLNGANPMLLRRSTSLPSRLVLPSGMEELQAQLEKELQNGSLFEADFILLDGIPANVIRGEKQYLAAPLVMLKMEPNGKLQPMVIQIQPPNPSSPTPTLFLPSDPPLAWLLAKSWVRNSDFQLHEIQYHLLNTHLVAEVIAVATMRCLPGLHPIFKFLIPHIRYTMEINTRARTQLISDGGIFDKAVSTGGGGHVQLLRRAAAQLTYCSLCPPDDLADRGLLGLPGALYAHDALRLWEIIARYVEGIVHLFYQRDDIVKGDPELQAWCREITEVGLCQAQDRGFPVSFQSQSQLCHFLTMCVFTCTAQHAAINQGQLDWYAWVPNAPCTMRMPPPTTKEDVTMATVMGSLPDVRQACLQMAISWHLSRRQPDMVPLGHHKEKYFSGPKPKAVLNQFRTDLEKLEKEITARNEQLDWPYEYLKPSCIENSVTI
Method: as §1, §2

[3] = target: T4, human prostate epithelial 15-lipoxygenase-2 (15-LOX-2) (Homo sapiens, UniProt O15296); assay: Lipoxygenase UV-based inhibitor assay, 15-LOX-2; type: biochemical; conditions: 30 µM AA, pH 7.5
T4 construct: His6 (N); made in house
T4 sequence (O15296 1-676): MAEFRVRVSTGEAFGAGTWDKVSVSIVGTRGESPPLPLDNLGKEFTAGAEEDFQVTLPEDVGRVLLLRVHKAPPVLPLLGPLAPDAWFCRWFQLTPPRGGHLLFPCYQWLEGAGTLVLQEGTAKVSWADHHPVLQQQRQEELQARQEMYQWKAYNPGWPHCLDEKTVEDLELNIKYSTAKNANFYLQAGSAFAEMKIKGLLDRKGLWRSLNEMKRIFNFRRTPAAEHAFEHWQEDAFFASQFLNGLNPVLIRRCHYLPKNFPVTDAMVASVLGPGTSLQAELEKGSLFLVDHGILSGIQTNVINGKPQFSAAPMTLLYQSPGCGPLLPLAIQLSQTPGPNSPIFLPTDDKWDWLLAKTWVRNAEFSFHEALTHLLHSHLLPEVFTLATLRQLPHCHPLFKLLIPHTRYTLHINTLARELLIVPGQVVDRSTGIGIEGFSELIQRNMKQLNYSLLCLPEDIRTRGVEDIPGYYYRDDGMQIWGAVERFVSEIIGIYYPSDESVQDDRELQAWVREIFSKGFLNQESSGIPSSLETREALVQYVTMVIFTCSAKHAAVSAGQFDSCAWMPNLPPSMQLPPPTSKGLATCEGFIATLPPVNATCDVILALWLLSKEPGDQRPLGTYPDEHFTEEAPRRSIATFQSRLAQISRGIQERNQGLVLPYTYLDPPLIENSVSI
Method: as §1, §2

[4] = test system: LTB4 synthesis in whole human blood; assay: Human blood LTB4 inhibition assay; type: cell-based; conditions: Homo sapiens, compounds at 10 µM, calcium ionophore stimulated, ELISA; error in parentheses
Method: Whole human blood was obtained from healthy volunteers from within the Student Health Center. These studies were approved by the UCSC Institutional Review Board (IRB) and informed consent was obtained from all donors before blood draw. The whole blood was dispensed in 150 µL samples followed by addition of inhibitor or control (vehicle, DMSO), and incubated for 15 min at 37°C. The mixture was then stimulated by introduction of the calcium ionophore, […], (freshly diluted from a 50 mM DMSO stock to 1.5 mM in Hanks balanced salt solution), and incubated for 30 min at 37°C. Samples were then centrifuged at 1,500 rpm (300 g) for 10 min at 4°C and the supernatant diluted between 20 and 50-fold (batch dependent) for LTB4 detection, using an ELISA detection kit (Cayman Chemicals Inc.).

[5] = target: T5, Human reticulocyte 15-lipoxygenase-1 (15-LOX-1) (Homo sapiens, UniProt P16050); assay: Lipoxygenase UV-based inhibitor assay, 15-LOX-1; type: biochemical; conditions: 10 µM LA, pH 7.5
T5 construct: His6 (N); made in house
T5 sequence (P16050 1-662): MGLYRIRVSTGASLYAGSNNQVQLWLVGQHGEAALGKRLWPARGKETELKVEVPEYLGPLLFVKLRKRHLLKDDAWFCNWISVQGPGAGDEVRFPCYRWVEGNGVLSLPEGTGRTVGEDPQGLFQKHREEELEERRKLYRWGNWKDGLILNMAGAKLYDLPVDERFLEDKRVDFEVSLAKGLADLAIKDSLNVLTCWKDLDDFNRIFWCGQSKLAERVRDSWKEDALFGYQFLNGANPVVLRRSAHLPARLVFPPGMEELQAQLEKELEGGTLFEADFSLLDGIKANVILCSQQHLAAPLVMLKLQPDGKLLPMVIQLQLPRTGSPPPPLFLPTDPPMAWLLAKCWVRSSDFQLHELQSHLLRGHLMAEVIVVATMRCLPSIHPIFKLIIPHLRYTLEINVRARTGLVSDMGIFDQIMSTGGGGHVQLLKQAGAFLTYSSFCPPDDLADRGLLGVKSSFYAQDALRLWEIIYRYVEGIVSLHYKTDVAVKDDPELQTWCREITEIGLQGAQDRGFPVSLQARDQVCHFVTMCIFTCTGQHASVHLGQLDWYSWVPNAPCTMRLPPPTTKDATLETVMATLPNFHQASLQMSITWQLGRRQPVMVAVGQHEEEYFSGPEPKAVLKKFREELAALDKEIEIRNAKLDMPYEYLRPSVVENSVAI
Method: as §1, §2

[6] = target: T6, Homo sapiens CYP51 (HsCYP51) (Homo sapiens, UniProt Q16850); set-up: method as in PMID 20149798; conditions: ref [40]; read-out: Kd with HsCYP51, previously reported; cited from earlier work
T6 construct: made in house; host or cells: E. coli
T6 sequence (Q16850 1-509): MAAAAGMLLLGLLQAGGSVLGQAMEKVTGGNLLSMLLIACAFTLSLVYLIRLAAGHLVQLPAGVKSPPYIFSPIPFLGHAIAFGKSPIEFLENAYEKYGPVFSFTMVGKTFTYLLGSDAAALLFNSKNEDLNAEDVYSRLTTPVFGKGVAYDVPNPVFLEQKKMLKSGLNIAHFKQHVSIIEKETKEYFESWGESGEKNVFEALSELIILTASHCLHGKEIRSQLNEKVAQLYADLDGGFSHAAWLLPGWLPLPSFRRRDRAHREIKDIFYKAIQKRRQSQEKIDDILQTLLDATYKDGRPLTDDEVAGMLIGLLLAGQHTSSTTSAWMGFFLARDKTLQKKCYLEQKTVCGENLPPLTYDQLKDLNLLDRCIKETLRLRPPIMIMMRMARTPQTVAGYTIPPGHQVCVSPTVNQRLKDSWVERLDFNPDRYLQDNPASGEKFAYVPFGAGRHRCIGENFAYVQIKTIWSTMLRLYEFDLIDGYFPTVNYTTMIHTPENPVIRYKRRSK

Reductive activity (pseudoperoxidase activity) (5-LOX)	IC50 [1]	Structure (SMILES)	also measured
No	> 150000 nM	CC(C)(C)OC(=O)N1CCC(c2ccc(NCc3ccc(-c4ccc(C#N)cc4)o3)cc2)CC1 [Compound 2]	5-LOX inhibition, in words [1]: complete loss of inhibition
No	> 150000 nM	CC(C)(C)OC(=O)N1CCN(c2ccc(OCc3ccc(-c4ccc(C#N)cc4)o3)cc2)CC1 [Compound 3]	5-LOX inhibition, in words [1]: complete loss of inhibition
No	> 150000 nM	CC(C)(C)OC(=O)N1CCN(c2ncc(NCc3ccc(-c4ccc(C#N)cc4)o3)cn2)CC1 [Compound 4]	5-LOX inhibition, in words [1]: complete loss of inhibition
No	> 150000 nM	CC(C)(C)OC(=O)N1CCN(c2cnc(NCc3ccc(-c4ccc(C#N)cc4)o3)nc2)CC1 [Compound 5]	5-LOX inhibition, in words [1]: complete loss of inhibition
Yes	2700 nM	CN(Cc1ccc(-c2ccc(C#N)cc2)o1)c1ccc(N2CCN(C(=O)OC(C)(C)C)CC2)cc1 [Compound 7]	
	100 nM	CC(C)(C)OC(=O)N1CCN(c2ccc(NCc3cnc(-c4ccc(C#N)cc4)o3)cc2)CC1 [Compound 8]	
	1500 nM	CC(C)(C)OC(=O)N1CCN(c2ccc(NCc3ncc(-c4ccc(C#N)cc4)o3)cc2)CC1 [Compound 9]	
	> 150000 nM	CC(C)(C)OC(=O)N1CCN(c2ccc(NCc3nnc(-c4ccc(C#N)cc4)o3)cc2)CC1 [Compound 10]	decrease in 5-LOX potency ([1]; relative to the other analogues of Figure 3): greater than 10 fold
	1100 nM	CC(=O)N1CCN(c2ccc(NCc3ccc(C)cc3)cc2)CC1 [Compound 11]	
	2600 nM	CC(=O)N1CCN(c2ccc(NCc3ccc(-c4ccc(Br)cc4)o3)cc2)CC1 [Compound 12]	
	600 nM	Cc1ccc(CNc2ccc(N3CCCCC3)cc2)cc1 [Compound 15]	IC50 [2]: > 50000 nM; IC50 [3]: > 50000 nM; inhibition at 10 µM [4]: < 10%; IC50 [5]: > 150000 nM
		Clc1ccccc1C(c1ccccc1)(c1ccccc1)n1ccnc1 [clotrimazole]	Kd [6]: < 100 nM
		Clc1ccc(COC(Cn2ccnc2)c2ccc(Cl)cc2Cl)cc1 (stereo not shown) [econazole]	Kd [6]: < 100 nM

Structure (SMILES)	Reductive activity (pseudoperoxidase activity) (5-LOX)	IC50 [1]	also measured
CC(c1cc2ccccc2s1)N(O)C(N)=O (stereo not shown) [zileuton, reference compound]	reductive		Reductive activity (pseudoperoxidase activity) (5-LOX; listed as Zilueton): Yes; IC50 [2]: > 150000 nM; IC50 [5]: > 50000 nM
